Literature values in patent US6583280B1, “Polyamine analogues having antiproliferative activity” (priority 2000, dated 2003).
Where two headings read alike, the source gives them in different places.

Legend:
[1] = molecular target: T1, ODC (Homo sapiens, UniProt P11926)
T1 sequence (P11926 1-461): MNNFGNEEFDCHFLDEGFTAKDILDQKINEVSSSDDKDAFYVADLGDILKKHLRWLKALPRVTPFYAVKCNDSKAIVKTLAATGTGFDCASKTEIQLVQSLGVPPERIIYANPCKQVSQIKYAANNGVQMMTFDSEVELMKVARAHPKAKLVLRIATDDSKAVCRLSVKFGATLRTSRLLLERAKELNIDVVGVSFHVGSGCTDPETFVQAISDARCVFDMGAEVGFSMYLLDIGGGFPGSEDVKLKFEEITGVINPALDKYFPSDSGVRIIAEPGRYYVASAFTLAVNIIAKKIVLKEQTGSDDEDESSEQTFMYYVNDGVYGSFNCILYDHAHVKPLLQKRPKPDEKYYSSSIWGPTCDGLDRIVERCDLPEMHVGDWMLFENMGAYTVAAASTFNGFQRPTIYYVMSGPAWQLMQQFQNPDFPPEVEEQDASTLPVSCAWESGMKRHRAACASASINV

[2] = human, in vivo
[3] = system: L1210 murine leukemia cells
[4] = molecular target: polyamine transport system
[5] = system: SSAT
[6] = system: human large cell carcinoma (LCLC); conditions: 10 μM
[7] = system: human small cell lung carcinoma line (SCLC)
[8] = system: polyamine pools
[9] = molecular target: T2, AdoMetDC (Homo sapiens, UniProt P17707); conditions: inhibitor of AdoMetDC
T2 sequence (P17707 68-334 limits assumed): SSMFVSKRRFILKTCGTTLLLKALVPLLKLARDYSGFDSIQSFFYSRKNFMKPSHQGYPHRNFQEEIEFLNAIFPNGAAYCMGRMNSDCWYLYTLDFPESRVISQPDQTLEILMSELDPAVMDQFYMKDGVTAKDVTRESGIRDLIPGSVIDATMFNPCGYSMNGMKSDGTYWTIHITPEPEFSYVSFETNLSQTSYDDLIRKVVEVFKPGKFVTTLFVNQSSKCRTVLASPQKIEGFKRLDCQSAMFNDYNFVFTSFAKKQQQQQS
T2 sequence (P17707 1-67 limits assumed): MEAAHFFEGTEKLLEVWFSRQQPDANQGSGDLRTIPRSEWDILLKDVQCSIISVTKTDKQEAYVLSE

[10] = system: Trypanosoma brucei brucei
[11] = liver and kidney
[12] = system: NMDA receptor; conditions: for IC50: MK-801 binding
[13] = physiological pH
[14] = animal study
[15] = in vitro toxicity
[16] = molecular target: T3, SSAT (Homo sapiens, UniProt P21673); conditions: multisubstrate inhibitor of SSAT
T3 sequence (P21673 whole entry, species assumed): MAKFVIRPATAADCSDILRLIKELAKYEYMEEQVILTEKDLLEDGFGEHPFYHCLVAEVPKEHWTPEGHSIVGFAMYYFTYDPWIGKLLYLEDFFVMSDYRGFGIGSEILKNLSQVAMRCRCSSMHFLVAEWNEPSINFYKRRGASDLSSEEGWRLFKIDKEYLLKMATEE

[17] = molecular target: T3, SSAT; conditions: due to lack of uptake
[18] = system: recombinant NMDA; conditions: recombinant NMDA receptors
[19] = molecular target: T4, spermine synthase (Homo sapiens, UniProt P52788); conditions: multisubstrate adduct inhibitor, in vitro
T4 sequence (P52788 1-366): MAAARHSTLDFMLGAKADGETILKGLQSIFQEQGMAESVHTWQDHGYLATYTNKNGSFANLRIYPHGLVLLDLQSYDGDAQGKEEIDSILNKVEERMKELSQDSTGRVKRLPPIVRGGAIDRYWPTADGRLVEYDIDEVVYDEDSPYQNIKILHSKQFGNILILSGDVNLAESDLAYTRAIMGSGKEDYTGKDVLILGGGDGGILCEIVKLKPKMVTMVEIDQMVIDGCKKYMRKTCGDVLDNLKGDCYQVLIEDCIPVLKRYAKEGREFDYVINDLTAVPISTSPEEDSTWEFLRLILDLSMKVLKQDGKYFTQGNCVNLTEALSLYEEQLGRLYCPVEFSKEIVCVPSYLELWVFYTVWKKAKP

[20] = system: two human pancreatic ductal adenocarcinoma cell lines
[21] = L1210 murine leukemia cells, read-out: IC50
[22] = read-out: Ki value for the polyamine transport system
[23] = 96th, read-out: 96th IC50 toward L1210 cell growth
[24] = target not printed, read-out: Ki

For `C#C[C@H](N)CC[C@@H](C)N` [RR-MAP, (2R,5R)-6-heptyne-2,5-diamine], the Ki ([1]; putrescine analogue, target not given) is listed as 3 µM and the “toxicity in clinical trials” value [2] is listed as “myclosuppression and renal toxicity”.

In the case of `CCNCCCNCCCCNCCCNCC` [DESpm, N′,N″-bis-ethylspermine], the IC50 [3, 21] is listed as 180 nM, the Ki [4, 22] is listed as 1600 nM and the “SSAT up-regulation / stimulation” value [5] is listed as 4.6 fold. The cytotoxicity [6] was “cytotoxic”, the “induction of SSAT” value ([6]; time- and dose-dependent) was “above 1700 fold” and the “induction of SSAT or cytotoxic effect” value [7] was “no significant induction of SSAT or cytotoxic effect”. For the same compound, the “effect on polyamine pools” value [8] was “deplete all three polyamine pools”.

In the case of `CN(CC=CCN)CC1OC(n2cnc3c(N)ncnc32)C(O)C1O` (stereo not drawn) [AbeAdo, 5′-{[(Z)-4-anino-2-butenyl]methylamino}-5′-deoxyadenosin], the Ki [9] is listed as 300 nM, the “potency relative to DFMO” value ([10]; Trypanosoma brucei brucei) is listed as “at least 100 times” and the effect on infection ([10]; Trypanosoma brucei brucei and multi-drug-resistant Trypanosoma brucei rhodesiense infections in mice) is listed as “cures”.

For `CCNCCCCNCCCCNCCCCNCC` [DEHSPM], the IC50 [3, 23] is given as 50 nM, the Ki [4, 24] is given as 1400 nM and the “accumulation of drug and metabolites” value [11] is given as “accumulate to toxic levels in the liver and kidney”.

In the case of `C(CNC1CCNCC1)CNC1CCNCC1` [PIP (3,3,3)], the “increase of MK-801 level” value ([12]; agonist) is given as 100% and the “fraction in the 3+ catonic state” value [13] is given as 63.2%.

For `NCCC[C@](N)(C(=O)O)C(F)F` [DFMO, α-difluoromethylornithine], the Ki ([1]; irreversible inhibitor of ODC) is given as 40 µM and the “effect on polyamine pools” value [8] is given as “depletes putricine and spermidine pools, but has little effect on Spermine pools”.

For `NCCCCNCCCN` [spermidine], the “nephrotoxicity relative to spermine” value [14] is listed as “approximately one-twentieth”.

In the case of `NCCCCN(CCCN)Cc1ccc(B(O)O)cc1` [BBSPD-5], the IC50 [15] is listed as 5 mM.

In the case of `CC(C)(COP(=O)(O)OP(=O)(O)OC[C@H]1O[C@@H](n2cnc3c(N)ncnc32)[C@H](O)[C@@H]1OP(=O)(O)O)[C@@H](O)C(=O)NCCC(=O)NCCSCC(=O)NCCCNCCCN` [CNSA, N-[1-(S-coenzyme A)acetyl]-syn-norspermidine amide], the IC50 [16] is given as 300 nM and the “activity in intact cells” value [17] is given as “devoid of activity in intact cells”.

For `c1ccc(CNCCCCN(CCCNCc2ccccc2)Cc2ccccc2)cc1` [TB-3-4], the IC50 [18] is listed as 200 nM.

For “S-(-5′-deoxy-5′-adenosyl)-1,12-diamino-3-thio-9-azadodecane [AdoDATAD]”, the IC50 [19] is given as 20 µM.

For `NCCCCNCCCCNCCCCN` [homospermine], the “agonist concentration at NMDA receptor” value [12] is given as no less than 10 µM and the IC50 [12] is given as 80 µM.

For `CCNCC[C@@H](O)CNCCCCNC[C@H](O)CCNCC` [(HO)2DEHPM], the IC50 [3, 23] is listed as 50 nM, the Ki [4, 24] is listed as 1800 nM and the “accumulation of drug and metabolites” value [11] is listed as “not observed”.

In the case of `CCNCCCNCCCNCCCNCC` [DENSpm, N′,N″-bis ethylnorspermine], the IC50 [3, 21] is listed as 1300 nM, the Ki [4, 22] is listed as 17000 nM and the “SSAT up-regulation / stimulation” value [5] is listed as 15 fold. The “effect on polyamine pools” value [8] was “deplete all three polyamine pools” and the antiproliferative activity [20] was “great antiproliferative activity”.

For `c1cc(NCCCCNc2ccncc2)ccn1` [PYR (3,4,3)], the IC50 [12] is listed as 8 µM.
